Experiments:
Assay in all cases: Kinase selectivity, scanMAX Kinase assay panel (DiscoverX), % control at 1 uM
Format in all cases: binding
[1] = molecular target: T1, scanMAX Kinase assay panel (Homo sapiens, UniProt P22694); details: PKAC-beta; 1 uM; read-out: Percent Control (%)
T1 construct: purchased DiscoverX
Outline: (§1)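 Activity was called for kinases showing % control under 35, calculated from compound signal relative to positive and negative controls. Each compound screened at 1 uM against the DiscoverX scanMAX panel.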

[2] = molecular target: T2, scanMAX Kinase assay panel (Homo sapiens, UniProt O95747); details: OSR1; 1 uM; read-out: Percent Control (%)
T2 construct: purchased DiscoverX
Outline: as §1

[3] = molecular target: T3, scanMAX Kinase assay panel (Homo sapiens, UniProt O75116); details: ROCK2; 1 uM; read-out: Percent Control (%)
T3 construct: purchased DiscoverX
Outline: as §1

[4] = molecular target: T4, scanMAX Kinase assay panel (Homo sapiens, UniProt P16234); details: PDGFRA; 1 uM; read-out: Percent Control (%)
T4 construct: purchased DiscoverX
Outline: as §1

[5] = molecular target: T5, scanMAX Kinase assay panel (Homo sapiens, UniProt Q99640); details: PKMYT1; 1 uM; read-out: Percent Control (%)
T5 construct: purchased DiscoverX
T5 sequence (Q99640 1-499): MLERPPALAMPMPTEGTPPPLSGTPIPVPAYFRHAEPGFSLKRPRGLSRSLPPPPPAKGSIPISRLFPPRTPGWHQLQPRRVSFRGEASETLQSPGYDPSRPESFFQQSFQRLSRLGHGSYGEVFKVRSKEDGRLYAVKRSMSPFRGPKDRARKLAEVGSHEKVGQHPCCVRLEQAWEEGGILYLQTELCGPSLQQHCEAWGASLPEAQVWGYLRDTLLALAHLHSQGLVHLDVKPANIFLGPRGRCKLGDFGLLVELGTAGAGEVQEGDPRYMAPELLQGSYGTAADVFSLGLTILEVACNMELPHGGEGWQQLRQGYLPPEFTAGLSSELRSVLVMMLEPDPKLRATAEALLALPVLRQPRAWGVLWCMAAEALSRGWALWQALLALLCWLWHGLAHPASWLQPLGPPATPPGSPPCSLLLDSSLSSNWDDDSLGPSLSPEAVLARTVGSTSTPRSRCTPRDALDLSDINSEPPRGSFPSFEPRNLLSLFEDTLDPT
Outline: as §1

[6] = molecular target: T6, scanMAX Kinase assay panel (Homo sapiens, UniProt O75716); details: STK16; 1 uM; read-out: Percent Control (%)
T6 construct: purchased DiscoverX
Outline: as §1

[7] = molecular target: T7, scanMAX Kinase assay panel (Homo sapiens, UniProt P42336, C420R); details: PIK3CA (C420R); 1 uM; read-out: Percent Control (%)
T7 construct: purchased DiscoverX
Outline: as §1

[8] = molecular target: T8, scanMAX Kinase assay panel (Homo sapiens, UniProt Q9H422); details: HIPK3; 1 uM; read-out: Percent Control (%)
T8 construct: purchased DiscoverX
Outline: as §1

[9] = molecular target: T9, scanMAX Kinase assay panel (Homo sapiens, UniProt Q8WXR4); details: MYO3B; 1 uM; read-out: Percent Control (%)
T9 construct: purchased DiscoverX
T9 sequence (Q8WXR4 1-1341): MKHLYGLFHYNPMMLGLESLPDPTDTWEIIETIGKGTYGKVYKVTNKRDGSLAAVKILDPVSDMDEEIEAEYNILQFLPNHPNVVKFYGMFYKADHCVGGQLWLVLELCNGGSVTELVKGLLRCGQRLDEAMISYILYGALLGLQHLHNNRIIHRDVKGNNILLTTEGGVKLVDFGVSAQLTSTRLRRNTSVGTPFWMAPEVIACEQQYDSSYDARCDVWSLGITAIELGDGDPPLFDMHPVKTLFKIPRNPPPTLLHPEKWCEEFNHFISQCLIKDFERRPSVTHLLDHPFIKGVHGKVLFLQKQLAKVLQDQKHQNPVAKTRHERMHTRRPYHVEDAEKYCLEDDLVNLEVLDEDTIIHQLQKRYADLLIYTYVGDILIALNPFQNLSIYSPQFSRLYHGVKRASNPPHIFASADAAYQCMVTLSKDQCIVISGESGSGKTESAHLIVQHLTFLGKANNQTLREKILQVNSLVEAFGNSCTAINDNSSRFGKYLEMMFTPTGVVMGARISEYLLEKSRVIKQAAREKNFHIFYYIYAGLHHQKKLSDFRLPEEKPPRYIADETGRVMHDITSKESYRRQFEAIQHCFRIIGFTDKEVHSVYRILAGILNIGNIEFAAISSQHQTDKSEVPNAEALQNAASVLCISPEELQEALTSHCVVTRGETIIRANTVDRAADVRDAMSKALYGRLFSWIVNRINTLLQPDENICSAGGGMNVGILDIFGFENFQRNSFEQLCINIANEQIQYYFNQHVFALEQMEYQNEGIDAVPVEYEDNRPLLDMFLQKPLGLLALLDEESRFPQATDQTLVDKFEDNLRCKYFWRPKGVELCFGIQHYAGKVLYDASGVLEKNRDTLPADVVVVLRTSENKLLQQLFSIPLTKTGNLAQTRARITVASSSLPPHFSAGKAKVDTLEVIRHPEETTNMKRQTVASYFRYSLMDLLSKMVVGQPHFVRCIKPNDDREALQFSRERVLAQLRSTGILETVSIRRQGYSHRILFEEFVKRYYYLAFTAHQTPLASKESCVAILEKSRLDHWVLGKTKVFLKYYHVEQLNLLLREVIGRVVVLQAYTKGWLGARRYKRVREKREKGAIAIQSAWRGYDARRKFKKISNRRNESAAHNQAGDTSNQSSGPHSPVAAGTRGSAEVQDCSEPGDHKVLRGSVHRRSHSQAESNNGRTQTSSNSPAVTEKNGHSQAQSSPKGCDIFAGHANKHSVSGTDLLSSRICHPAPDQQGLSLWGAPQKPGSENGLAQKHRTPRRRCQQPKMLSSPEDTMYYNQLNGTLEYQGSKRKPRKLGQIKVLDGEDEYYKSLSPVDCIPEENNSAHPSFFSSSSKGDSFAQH
Outline: as §1

T2 sequence (O95747 whole entry): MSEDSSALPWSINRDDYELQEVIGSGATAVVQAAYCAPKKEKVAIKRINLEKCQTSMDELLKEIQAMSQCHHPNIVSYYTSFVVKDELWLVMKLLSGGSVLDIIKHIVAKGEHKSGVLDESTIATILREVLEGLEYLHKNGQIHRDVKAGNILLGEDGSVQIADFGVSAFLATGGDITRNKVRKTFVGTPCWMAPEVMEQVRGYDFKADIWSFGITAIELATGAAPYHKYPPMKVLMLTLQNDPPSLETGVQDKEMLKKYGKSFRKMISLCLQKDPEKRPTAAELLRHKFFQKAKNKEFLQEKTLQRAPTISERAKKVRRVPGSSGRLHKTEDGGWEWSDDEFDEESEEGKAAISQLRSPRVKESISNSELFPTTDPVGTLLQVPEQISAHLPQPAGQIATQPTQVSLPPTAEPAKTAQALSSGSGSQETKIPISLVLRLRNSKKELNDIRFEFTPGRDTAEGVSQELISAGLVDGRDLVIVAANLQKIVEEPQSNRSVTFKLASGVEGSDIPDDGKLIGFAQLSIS
T3 sequence (O75116 whole entry): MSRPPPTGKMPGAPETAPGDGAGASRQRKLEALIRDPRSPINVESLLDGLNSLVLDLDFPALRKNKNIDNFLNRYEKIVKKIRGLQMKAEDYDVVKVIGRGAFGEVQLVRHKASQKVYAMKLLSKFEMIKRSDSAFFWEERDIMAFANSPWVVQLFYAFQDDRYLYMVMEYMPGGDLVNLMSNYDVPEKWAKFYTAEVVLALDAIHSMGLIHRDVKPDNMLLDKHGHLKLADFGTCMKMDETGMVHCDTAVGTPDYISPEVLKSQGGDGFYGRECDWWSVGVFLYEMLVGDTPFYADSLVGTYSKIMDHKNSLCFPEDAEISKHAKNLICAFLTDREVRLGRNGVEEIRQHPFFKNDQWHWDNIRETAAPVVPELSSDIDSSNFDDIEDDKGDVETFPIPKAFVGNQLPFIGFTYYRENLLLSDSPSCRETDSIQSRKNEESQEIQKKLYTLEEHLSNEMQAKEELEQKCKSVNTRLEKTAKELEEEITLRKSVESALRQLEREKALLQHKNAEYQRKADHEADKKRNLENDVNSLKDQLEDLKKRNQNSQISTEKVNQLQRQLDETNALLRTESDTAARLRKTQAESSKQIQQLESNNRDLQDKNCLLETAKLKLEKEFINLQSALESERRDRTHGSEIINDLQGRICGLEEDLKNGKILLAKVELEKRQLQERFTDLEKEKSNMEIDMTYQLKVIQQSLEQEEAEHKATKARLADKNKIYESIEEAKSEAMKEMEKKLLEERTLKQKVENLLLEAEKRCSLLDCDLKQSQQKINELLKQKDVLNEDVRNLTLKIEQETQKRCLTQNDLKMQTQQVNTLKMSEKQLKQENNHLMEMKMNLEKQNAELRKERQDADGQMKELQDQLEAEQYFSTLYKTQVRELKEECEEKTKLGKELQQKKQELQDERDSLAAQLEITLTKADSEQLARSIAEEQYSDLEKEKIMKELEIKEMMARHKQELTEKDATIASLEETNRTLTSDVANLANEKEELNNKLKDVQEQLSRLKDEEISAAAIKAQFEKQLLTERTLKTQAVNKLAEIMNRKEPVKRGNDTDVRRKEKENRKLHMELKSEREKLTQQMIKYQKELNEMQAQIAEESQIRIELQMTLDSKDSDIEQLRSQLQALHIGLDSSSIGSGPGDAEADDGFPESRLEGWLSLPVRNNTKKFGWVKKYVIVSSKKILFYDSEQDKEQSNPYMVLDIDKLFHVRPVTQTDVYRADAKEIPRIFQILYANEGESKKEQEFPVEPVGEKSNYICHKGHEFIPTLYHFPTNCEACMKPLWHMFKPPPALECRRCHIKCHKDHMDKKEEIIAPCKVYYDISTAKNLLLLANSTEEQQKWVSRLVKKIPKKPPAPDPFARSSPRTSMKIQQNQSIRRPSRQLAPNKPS
T8 sequence (Q9H422 whole entry): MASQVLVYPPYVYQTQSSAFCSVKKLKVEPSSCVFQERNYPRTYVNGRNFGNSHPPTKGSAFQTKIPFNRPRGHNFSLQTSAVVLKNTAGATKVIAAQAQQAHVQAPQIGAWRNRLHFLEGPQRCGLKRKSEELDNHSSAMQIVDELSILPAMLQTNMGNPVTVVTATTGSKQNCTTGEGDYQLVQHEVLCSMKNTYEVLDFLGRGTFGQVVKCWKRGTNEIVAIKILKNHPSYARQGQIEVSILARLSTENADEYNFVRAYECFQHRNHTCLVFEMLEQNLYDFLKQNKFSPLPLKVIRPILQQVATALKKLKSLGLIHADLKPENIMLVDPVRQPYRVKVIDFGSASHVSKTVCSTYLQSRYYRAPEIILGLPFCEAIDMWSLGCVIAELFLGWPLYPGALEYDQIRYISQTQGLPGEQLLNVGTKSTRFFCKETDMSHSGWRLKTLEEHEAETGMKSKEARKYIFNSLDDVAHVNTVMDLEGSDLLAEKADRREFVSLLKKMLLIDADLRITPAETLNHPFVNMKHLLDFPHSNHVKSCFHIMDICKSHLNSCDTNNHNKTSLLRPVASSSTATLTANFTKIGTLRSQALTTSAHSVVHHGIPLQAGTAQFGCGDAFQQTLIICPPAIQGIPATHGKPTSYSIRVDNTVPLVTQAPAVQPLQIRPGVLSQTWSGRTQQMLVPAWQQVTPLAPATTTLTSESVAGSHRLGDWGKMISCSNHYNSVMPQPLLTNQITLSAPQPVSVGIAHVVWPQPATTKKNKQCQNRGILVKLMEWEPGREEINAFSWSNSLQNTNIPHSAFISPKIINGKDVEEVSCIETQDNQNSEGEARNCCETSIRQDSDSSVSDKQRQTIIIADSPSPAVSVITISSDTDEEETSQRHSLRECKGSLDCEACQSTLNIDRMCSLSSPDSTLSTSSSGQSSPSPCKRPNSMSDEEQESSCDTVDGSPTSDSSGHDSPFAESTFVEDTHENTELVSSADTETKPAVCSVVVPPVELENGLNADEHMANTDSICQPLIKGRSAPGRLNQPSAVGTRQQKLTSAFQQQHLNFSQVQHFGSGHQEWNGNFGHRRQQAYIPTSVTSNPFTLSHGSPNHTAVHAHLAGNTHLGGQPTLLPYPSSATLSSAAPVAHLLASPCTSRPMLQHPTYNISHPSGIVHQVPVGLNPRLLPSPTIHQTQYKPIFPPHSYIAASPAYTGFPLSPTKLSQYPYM
T4 sequence (P16234 24-1089): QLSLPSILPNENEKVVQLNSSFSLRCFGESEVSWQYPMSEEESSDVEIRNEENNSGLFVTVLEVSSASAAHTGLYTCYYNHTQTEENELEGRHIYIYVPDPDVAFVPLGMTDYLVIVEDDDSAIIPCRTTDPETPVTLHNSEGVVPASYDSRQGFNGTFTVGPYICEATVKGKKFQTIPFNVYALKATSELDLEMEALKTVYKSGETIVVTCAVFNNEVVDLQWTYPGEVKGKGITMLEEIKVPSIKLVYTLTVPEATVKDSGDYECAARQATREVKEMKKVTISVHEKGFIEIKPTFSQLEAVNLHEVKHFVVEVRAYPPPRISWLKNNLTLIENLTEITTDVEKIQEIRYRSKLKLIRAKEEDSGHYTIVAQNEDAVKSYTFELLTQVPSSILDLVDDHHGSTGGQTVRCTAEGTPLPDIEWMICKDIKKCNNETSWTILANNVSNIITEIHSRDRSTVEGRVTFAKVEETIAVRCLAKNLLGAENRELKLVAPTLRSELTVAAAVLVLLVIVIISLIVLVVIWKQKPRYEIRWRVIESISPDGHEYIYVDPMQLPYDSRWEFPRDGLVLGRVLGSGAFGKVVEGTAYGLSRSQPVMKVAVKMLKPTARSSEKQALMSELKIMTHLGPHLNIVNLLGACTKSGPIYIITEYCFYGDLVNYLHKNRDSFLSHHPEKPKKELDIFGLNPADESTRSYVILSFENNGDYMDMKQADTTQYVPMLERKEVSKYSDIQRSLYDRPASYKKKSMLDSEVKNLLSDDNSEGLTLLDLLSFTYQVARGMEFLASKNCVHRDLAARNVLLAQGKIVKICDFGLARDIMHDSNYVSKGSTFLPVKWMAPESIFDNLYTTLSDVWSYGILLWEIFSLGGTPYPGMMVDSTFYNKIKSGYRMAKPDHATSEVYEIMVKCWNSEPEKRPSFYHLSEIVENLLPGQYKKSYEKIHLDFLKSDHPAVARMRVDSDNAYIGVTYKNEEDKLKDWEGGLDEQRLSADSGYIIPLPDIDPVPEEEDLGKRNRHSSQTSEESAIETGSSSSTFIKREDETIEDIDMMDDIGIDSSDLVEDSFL
T6 sequence (O75716 whole entry): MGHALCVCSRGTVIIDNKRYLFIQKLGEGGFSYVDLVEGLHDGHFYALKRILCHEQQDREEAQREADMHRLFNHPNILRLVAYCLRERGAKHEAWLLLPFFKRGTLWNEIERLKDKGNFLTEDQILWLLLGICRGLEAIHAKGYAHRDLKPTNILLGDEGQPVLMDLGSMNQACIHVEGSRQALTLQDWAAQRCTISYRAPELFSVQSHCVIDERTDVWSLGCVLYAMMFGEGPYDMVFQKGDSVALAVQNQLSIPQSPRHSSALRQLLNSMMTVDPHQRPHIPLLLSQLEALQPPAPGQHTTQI

Structure (SMILES)	remaining binding at 1 µM [1] [%]	remaining binding at 1 µM [2] [%]	remaining binding at 1 µM [3] [%]	remaining binding at 1 µM [4] [%]	remaining binding at 1 µM [5] [%]	remaining binding at 1 µM [6] [%]	remaining binding at 1 µM [7] [%]	remaining binding at 1 µM [8] [%]	remaining binding at 1 µM [9] [%]
Cc1ccc(C(=O)Nc2ccc(CN3CCN(C)CC3)c(C(F)(F)F)c2)cc1C#Cc1cnc2c(Nc3cnn(C)c3)cccn12 [Example 1, 4-methyl-3-((8-((1-methyl-1H-pyrazol-4-yl)amino)imidazo[1,2-a]pyridin-3-yl)ethynyl)-N-(4-((4-methylpiperazin-1-yl)methyl)-3-(trifluoromethyl)phenyl)benzamide]	34	88	15	1	93	38	97	54	35
Cc1cn(-c2cc(NC(=O)c3ccc(C)c(C#Cc4cnc5c(Nc6cnn(C)c6)cccn45)c3)cc(C(F)(F)F)c2)cn1 [Example 12, 4-methyl-N-(3-(4-methyl-1H-imidazol-1-yl)-5-(trifluoromethyl)phenyl)-3-((8-((1-methyl-1H-pyrazol-4-yl)amino)imidazo[1,2-a]pyridin-3-yl)ethynyl)benzamide]	87	100	100	4	98	70	100	84	81
Cc1ccc(NC(=O)C2(C(=O)Nc3ccc(F)cc3)CC2)cc1C#Cc1cnc2c(Nc3cnn(C(C)C)c3)cccn12 [Example 78]	98	100	100	29	90	99	100	100	92
